Source: the supplement of paper PMC10627819

Tests used:
S. pneumoniae D39V [1] = assay: fitness (endpoint OD595 vs no drug) (fraction); higher = more growth
Procedure, shortened: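 Fitness is computed from the optical density at which cultures reach stationary phase, divided by the robust mean of no-drug control wells. Any value above 1 is set to 1. Cultures started at OD595 0.01 in 384-well plates with TSB, LB Lennox or CY at 37 °C, and OD595 was read every 30 min for 14 h against a first-reading background.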

S. aureus DSM 20231 = assay: Bliss interaction score (quartile over a dose matrix) (fitness difference); higher = more antagonism (negative = synergy)
Procedure, shortened: (§1)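 Fitness was derived from optical density at entry into stationary phase, divided by the robust mean of the no-drug wells on the same plate. That reading was taken as OD595, and the ratio was capped at 1. Single-drug fitness was inferred from the combination data. The Bliss score, observed fitness minus the expected product of single-drug fitness, was summarised as quartiles over technical, biological and donor/recipient replicates.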

S. pneumoniae D39V [2] = assay: as above
Procedure, shortened: as §1

B. subtilis 168 = assay: as above
Procedure, shortened: as §1

S. aureus Newman = assay: as above
Procedure, shortened: as §1
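For Bliss interaction score (quartile over a dose matrix) in this document: first quartile when negative (synergy) and third quartile when positive (antagonism).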

CC[C@H]1OC(=O)[C@H](C)[C@@H](O[C@H]2C[C@@](C)(OC)[C@@H](O)[C@H](C)O2)[C@H](C)[C@@H](O[C@@H]2O[C@H](C)C[C@H](N(C)C)[C@H]2O)[C@](C)(OC)C[C@@H](C)C(=O)[C@H](C)[C@@H](O)[C@]1(C)O [Clarithromycin] + C[n+]1ccc(-c2cc[n+](C)cc2)cc1 [Paraquat]
fitness, S. pneumoniae D39V [1], one replicate
Details	first compound 0.007812 µg/mL	first compound 0.01562 µg/mL	first compound 0.03125 µg/mL	first compound 0.0625 µg/mL	first compound 0.125 µg/mL	first compound 0.25 µg/mL
partner 1.5 µg/mL	0.899	0.836	0.603	0.771	0.597	0.274
partner 3 µg/mL	0.918	0.871	0.62	0.788	0.684	0.324
partner 6 µg/mL	0.909	0.816	0.657	0.837	0.708	0.345

fitness, S. pneumoniae D39V [1]
Details	first compound 0.07 µg/mL	first compound 0.14 µg/mL	first compound 0.28 µg/mL
partner 1.5 µg/mL	0.171	0.129	0.0703
partner 3 µg/mL	0.171	0.103	0.0937
partner 6 µg/mL	0.164	0.126	0.0698

Details	Bliss interaction score
B. subtilis 168	-0.0322
S. aureus DSM 20231	-0.0525
S. aureus Newman	-0.0377
S. pneumoniae D39V [2]	0.0803

CC[C@H]1OC(=O)[C@H](C)[C@@H](O[C@H]2C[C@@](C)(OC)[C@@H](O)[C@H](C)O2)[C@H](C)[C@@H](O[C@@H]2O[C@H](C)C[C@H](N(C)C)[C@H]2O)[C@](C)(OC)C[C@@H](C)C(=O)[C@H](C)[C@@H](O)[C@]1(C)O [Clarithromycin] + Cc1cc(NS(=O)(=O)c2ccc(N)cc2)no1 [Sulfamethoxazol]
fitness, S. pneumoniae D39V [1], one replicate
Details	first compound 0.007812 µg/mL	first compound 0.01562 µg/mL	first compound 0.03125 µg/mL	first compound 0.0625 µg/mL	first compound 0.125 µg/mL	first compound 0.25 µg/mL
partner 1 µg/mL	0.925	0.809	0.67	0.699	0.466	0.168
partner 2 µg/mL	0.917	0.825	0.665	0.813	0.664	0.315
partner 4 µg/mL	0.899	0.805	0.661	0.613	0.465	0.17

fitness, S. pneumoniae D39V [1]
Details	first compound 0.07 µg/mL	first compound 0.14 µg/mL	first compound 0.28 µg/mL
partner 1 µg/mL	0.119	0.0685	0.0468
partner 2 µg/mL	0.11	0.0677	0.0381
partner 4 µg/mL	0.1	0.0655	0.0459

Details	Bliss interaction score
B. subtilis 168	0.0784
S. aureus DSM 20231	0.0612
S. aureus Newman	-0.0372
S. pneumoniae D39V [2]	0.0413

CC[C@H]1OC(=O)[C@H](C)[C@@H](O[C@H]2C[C@@](C)(OC)[C@@H](O)[C@H](C)O2)[C@H](C)[C@@H](O[C@@H]2O[C@H](C)C[C@H](N(C)C)[C@H]2O)[C@](C)(OC)C[C@@H](C)C(=O)[C@H](C)[C@@H](O)[C@]1(C)O [Clarithromycin] + Cc1ncc([N+](=O)[O-])n1CCO [Metronidazole]
fitness, S. pneumoniae D39V [1], one replicate
Details	first compound 0.007812 µg/mL	first compound 0.01562 µg/mL	first compound 0.03125 µg/mL
partner 1.25 µg/mL	0.927	0.903	0.669
partner 2.5 µg/mL	0.926	0.891	0.692
partner 5 µg/mL	0.917	0.856	0.668

fitness, S. pneumoniae D39V [1]
Details	first compound 0.0625 µg/mL	first compound 0.07 µg/mL	first compound 0.125 µg/mL	first compound 0.14 µg/mL	first compound 0.25 µg/mL	first compound 0.28 µg/mL
partner 1.073 µg/mL	0.729	–	0.542	–	0.337	–
partner 1.25 µg/mL	–	0.149	–	0.0801	–	0.0663
partner 2.145 µg/mL	0.734	–	0.598	–	0.393	–
partner 2.5 µg/mL	–	0.168	–	0.0889	–	0.101
partner 4.29 µg/mL	0.688	–	0.554	–	0.257	–
partner 5 µg/mL	–	0.178	–	0.114	–	0.0828

Details	Bliss interaction score
B. subtilis 168	0.103
S. aureus DSM 20231	0.118
S. aureus Newman	-0.0393
S. pneumoniae D39V [2]	0.106

CC[C@H]1OC(=O)[C@H](C)[C@@H](O[C@H]2C[C@@](C)(OC)[C@@H](O)[C@H](C)O2)[C@H](C)[C@@H](O[C@@H]2O[C@H](C)C[C@H](N(C)C)[C@H]2O)[C@](C)(OC)C[C@@H](C)C(=O)[C@H](C)[C@@H](O)[C@]1(C)O [Clarithromycin] + Cc1onc(-c2ccccc2)c1C(=O)N[C@@H]1C(=O)N2[C@@H]1SC(C)(C)[C@@H]2C(=O)O [Oxacillin]
fitness, S. pneumoniae D39V [1], one replicate
Details	first compound 0.007812 µg/mL	first compound 0.01562 µg/mL	first compound 0.03125 µg/mL
partner 0.01 µg/mL	0.9	0.856	0.678
partner 0.02 µg/mL	0.911	0.833	0.646
partner 0.04 µg/mL	0.414	0.48	0.418

fitness, S. pneumoniae D39V [1]
Details	first compound 0.0625 µg/mL	first compound 0.07 µg/mL	first compound 0.125 µg/mL	first compound 0.14 µg/mL	first compound 0.25 µg/mL	first compound 0.28 µg/mL
partner 0.005 µg/mL	–	0.179	–	0.128	–	0.119
partner 0.01 µg/mL	0.564	0.185	–	0.136	0.165	0.0928
partner 0.02 µg/mL	0.54	0.182	–	0.117	0.158	0.107
partner 0.04 µg/mL	–	–	0.254	–	0.0887	–

Details	Bliss interaction score
B. subtilis 168	0.0227
S. aureus DSM 20231	0.0328
S. aureus Newman	-0.0384
S. pneumoniae D39V [2]	0.0844

CC[C@H]1OC(=O)[C@H](C)[C@@H](O[C@H]2C[C@@](C)(OC)[C@@H](O)[C@H](C)O2)[C@H](C)[C@@H](O[C@@H]2O[C@H](C)C[C@H](N(C)C)[C@H]2O)[C@](C)(OC)C[C@@H](C)C(=O)[C@H](C)[C@@H](O)[C@]1(C)O [Clarithromycin] + Clc1ccc(COC(Cn2ccnc2)c2ccc(Cl)cc2Cl)c(Cl)c1 [Miconazole]
fitness, S. pneumoniae D39V [1], one replicate
Details	first compound 0.007812 µg/mL	first compound 0.01562 µg/mL	first compound 0.03125 µg/mL
partner 1.25 µg/mL	0.924	0.848	0.664
partner 2.5 µg/mL	0.9	0.855	0.66
partner 5 µg/mL	0.869	0.847	0.556

S. pneumoniae D39V [1]
Details	fitness
first compound 0.0625 µg/mL, partner 1.073 µg/mL	0.747
first compound 0.0625 µg/mL, partner 2.145 µg/mL	0.638
first compound 0.0625 µg/mL, partner 4.29 µg/mL	0.635
first compound 0.07 µg/mL, partner 1.25 µg/mL	0.167
first compound 0.07 µg/mL, partner 2.5 µg/mL	0.185
first compound 0.07 µg/mL, partner 5 µg/mL	0.107
first compound 0.125 µg/mL, partner 4.29 µg/mL	0.448
first compound 0.14 µg/mL, partner 1.25 µg/mL	0.117
first compound 0.14 µg/mL, partner 2.5 µg/mL	0.151
first compound 0.14 µg/mL, partner 5 µg/mL	0.0925
first compound 0.25 µg/mL, partner 1.073 µg/mL	0.0979
first compound 0.25 µg/mL, partner 2.145 µg/mL	0.0742
first compound 0.25 µg/mL, partner 4.29 µg/mL	0.218
first compound 0.28 µg/mL, partner 1.25 µg/mL	0.0568
first compound 0.28 µg/mL, partner 2.5 µg/mL	0.122
first compound 0.28 µg/mL, partner 5 µg/mL	0.0835

Details	Bliss interaction score
B. subtilis 168	0.0897
S. aureus DSM 20231	0.0854
S. aureus Newman	0.0558
S. pneumoniae D39V [2]	0.0979

CC[C@H]1OC(=O)[C@H](C)[C@@H](O[C@H]2C[C@@](C)(OC)[C@@H](O)[C@H](C)O2)[C@H](C)[C@@H](O[C@@H]2O[C@H](C)C[C@H](N(C)C)[C@H]2O)[C@](C)(OC)C[C@@H](C)C(=O)[C@H](C)[C@@H](O)[C@]1(C)O [Clarithromycin] + Cn1nnc(-c2ccc(-c3ccc(N4C[C@H](CO)OC4=O)cc3F)cn2)n1 [Tedizolid]
fitness, S. pneumoniae D39V [1], one replicate
Details	first compound 0.007812 µg/mL	first compound 0.01562 µg/mL	first compound 0.03125 µg/mL
partner 0.125 µg/mL	0.739	0.692	0.639
partner 0.25 µg/mL	0.701	0.685	0.686
partner 0.5 µg/mL	0.373	0.381	0.353

fitness, S. pneumoniae D39V [1]
Details	first compound 0.0625 µg/mL	first compound 0.07 µg/mL	first compound 0.125 µg/mL	first compound 0.14 µg/mL	first compound 0.25 µg/mL	first compound 0.28 µg/mL
partner 0.03125 µg/mL	0.715	–	0.544	–	0.317	–
partner 0.0625 µg/mL	0.727	–	0.571	–	0.336	–
partner 0.125 µg/mL	0.666	0.0645	0.511	0.053	0.275	0.0588
partner 0.25 µg/mL	–	0.0475	–	0.0527	–	0.0319
partner 0.5 µg/mL	–	0.0477	–	0.0537	–	0.0347

Details	Bliss interaction score
B. subtilis 168	-0.0452
S. aureus DSM 20231	-0.109
S. aureus Newman	-0.106
S. pneumoniae D39V [2]	0.0824

CC[C@H]1OC(=O)[C@H](C)[C@@H](O[C@H]2C[C@@](C)(OC)[C@@H](O)[C@H](C)O2)[C@H](C)[C@@H](O[C@@H]2O[C@H](C)C[C@H](N(C)C)[C@H]2O)[C@](C)(OC)C[C@@H](C)C(=O)[C@H](C)[C@@H](O)[C@]1(C)O [Clarithromycin] + O=C1CN(/N=C/c2ccc([N+](=O)[O-])o2)C(=O)N1 [Nitrofurantoin]
fitness, S. pneumoniae D39V [1], one replicate
Details	first compound 0.007812 µg/mL	first compound 0.01562 µg/mL	first compound 0.03125 µg/mL	first compound 0.0625 µg/mL	first compound 0.125 µg/mL	first compound 0.25 µg/mL
partner 2 µg/mL	0.879	0.802	0.627	–	–	–
partner 4 µg/mL	0.862	0.788	0.643	–	–	–
partner 5.14 µg/mL	–	–	–	0.402	0.214	0.146
partner 8 µg/mL	0.744	0.678	0.556	–	–	–

fitness, S. pneumoniae D39V [1]
Details	first compound 0.0625 µg/mL	first compound 0.07 µg/mL	first compound 0.125 µg/mL	first compound 0.14 µg/mL	first compound 0.25 µg/mL	first compound 0.28 µg/mL
partner 1.285 µg/mL	0.636	–	0.263	–	0.104	–
partner 2 µg/mL	–	0.0417	–	0.0458	–	0.0401
partner 2.57 µg/mL	0.59	–	0.199	–	0.0984	–
partner 4 µg/mL	–	0.0482	–	0.0382	–	0.0171
partner 8 µg/mL	–	0.0337	–	0.0552	–	0.0141

Details	Bliss interaction score
B. subtilis 168	-0.0776
S. aureus DSM 20231	-0.04
S. aureus Newman	-0.117
S. pneumoniae D39V [2]	-0.0986

CC[C@H]1OC(=O)[C@H](C)[C@@H](O[C@H]2C[C@@](C)(OC)[C@@H](O)[C@H](C)O2)[C@H](C)[C@@H](O[C@@H]2O[C@H](C)C[C@H](N(C)C)[C@H]2O)[C@](C)(OC)C[C@@H](C)C(=O)[C@H](C)[C@@H](O)[C@]1(C)O [Clarithromycin] + O=C(O[C@@H]1Cc2c(O)cc(O)cc2O[C@@H]1c1cc(O)c(O)c(O)c1)c1cc(O)c(O)c(O)c1 [EGCG]
fitness, S. pneumoniae D39V [1], one replicate
Details	first compound 0.007812 µg/mL	first compound 0.01562 µg/mL	first compound 0.03125 µg/mL
partner 12.5 µg/mL	0.808	0.8	0.635
partner 25 µg/mL	0.847	0.762	0.609
partner 50 µg/mL	0.827	0.77	0.614

fitness, S. pneumoniae D39V [1]
Details	first compound 0.0625 µg/mL	first compound 0.07 µg/mL	first compound 0.125 µg/mL	first compound 0.14 µg/mL	first compound 0.25 µg/mL	first compound 0.28 µg/mL
partner 12.5 µg/mL	0.457	0.123	0.241	0.0422	0.0839	0.0515
partner 25 µg/mL	0.493	0.115	0.25	0.0716	0.0874	0.0518
partner 50 µg/mL	0.383	0.144	0.373	0.0769	0.122	0.0507

Details	Bliss interaction score
B. subtilis 168	0.0404
S. aureus DSM 20231	0.109
S. aureus Newman	0.132
S. pneumoniae D39V [2]	-0.0473
